{"source": "patent US10391330B2", "about": "“Non-invasive systems and methods for in-situ photobiomodulation” (priority 2008, dated 2019)", "origin": "cited, not measured here", "key": {"[1]": {"conditions": "clinical use"}, "T cells": {"tested_on": "T cells", "conditions": "combination with UVA radiation"}}, "data": [{"molecule": "Oc1cccc(-c2c3nc(c(-c4cccc(O)c4)c4ccc([nH]4)c(-c4cccc(O)c4)c4nc(c(-c5cccc(O)c5)c5ccc2[nH]5)CC4)C=C3)c1", "note": "[Foscan, Tetra (m-hydroxyphenyl) chlorin]", "values": [{"measurement": "duration of skin photosensitivity", "setting": "[1]", "value": "approximately 2 weeks"}]}, {"molecule": "COc1c2occc2cc2ccc(=O)oc12", "note": "[Compound 8-MOP, 8-methoxypsoralen]", "values": [{"measurement": "apoptosis of the treated T cells", "setting": "T cells", "value": "causes apoptosis"}]}]}
